Assay [1] concerns PGF2a-stimulated rat uterine muscle contraction. Put plainly: Inhibition of PGF2a-stimulated rat uterine muscle strip contraction (organ bath). To be noted: 20 μg/ml compound pretreatment for 10 min before PGF2a (1 μM). It counts as cell-based. As to the method: (§1) Uterine relaxing activities on OTC- and KCl-stimulated rat uterine muscle contraction were carried out according to the method described by Ostad S N, Soodi M, Shariffzadeh M, Khorshidi N, and Marzban H. (The effect of fennel essential oil on uterine contraction as a model for dysmenorrhea, pharmacology and toxicology study. Journal of Ethnopharmacology 2001; 76: 299-304.). Female virgin Sprague-Dawley rats (200 g to 300 g) were obtained from the Laboratory Animal Center at Yang-Ming University. They were primed with 5 mg/kg of estradiol (Sigma-Aldrich) 24 hours before the experiments, and then sacrificed by CO2 asphyxiation. Uterine strips free from adhering tissues were mounted under a resting tension of 1 g in a 10 ml organ bath containing dejalon solution gassed with carbogen (95% O2 and 5% CO2) at 31° C., which were then allowed to equilibrate for at least 1 hour. To evaluate the effect on the contractile response induced by PGF2a, a modified Locke-Ringer solution and a maintained temperature of 28° C. were used according to the method described by Murata. P, Hayakawa T, Satoh K, Kase Y, Ishige A, and Sasaki H. (Effects of Dai-kenchu-to, a herbal medicine, on uterine and intestinal motility. Phytotherapy Research 2001; 15: 302-6). Contractions were recorded by force displacements transducers (Grass Instruments USA) using MP100 workstation software (Biopac Systems USA) on a PC. […]

Assay [2] concerns KCl-stimulated rat uterine muscle contraction. Put plainly: Inhibition of KCl-stimulated rat uterine muscle strip contraction (organ bath). It counts as cell-based. To be noted: 20 μg/ml compound pretreatment for 10 min before KCl (60 mM). As to the method:
as §1

In general, inhibition refers to the percentage by which the read-out fell short of the control. Take `C=CC(C)(O)CCC=C(C)C` (stereo not shown) [linalool]: the “inhibition of muscle contraction” value in assay [1] is recorded as “didn't show obvious inhibition”. The inhibition at 20 µg/mL in assay [2] lay in the range of 27 to 46%.
Consider `Cc1ccc(C(C)C)c(O)c1` [thymol], for which the “inhibition of muscle contraction” value in assay [1] is “didn't show obvious inhibition”. In addition, the inhibition at 20 µg/mL in assay [2] lay within 27 to 46%.

The values above are taken from patent publication US7514106B2, “Compositions and methods for uterine relaxing” (Yangsen Biotechnology Co., Ltd., priority 2006, dated 2009).
